This experiment has as its target T1, BRD4 (BRD4^Tandem) (Homo sapiens, UniProt O60885).
T1 construct: BRD4^Tandem (residues 43–459), BD1 and BD2 with native linker; with DCAF16–DDB1(ΔBPB)–DDA1
Briefly: cryo-EM ternary structure ([…] Å); alphaLISA displacement ([…] with DCAF16, […] alone); ITC; TR-FRET. In kind it is binding. (Alpha assays give light when donor and acceptor beads are brought close together.)

The record followed here is paper PMC10917667, “Targeted protein degradation via intramolecular bivalent glues” (Nature, 2024).

Molecules are shown by their SMILES.

In the case of `COC(=O)C[C@@H]1N=C(c2ccc(-c3ccc(C(=O)NCc4ccc(S(=O)(=O)Nc5ccc(C)c6c(C#N)c[nH]c56)cc4)cc3)cc2)c2c(sc(C)c2C)-n2c(C)nnc21` [IBG1], the half-inhibitory concentration (IC50) (commonly the concentration needed to halve the response being measured) stood at 12.8 nM.
